Results: patent US9351951B2, “Prevention of proteomic and genomic damage by dicarbonyl substrates of Glo 1” (University of Warnick, priority 2010, dated 2016)

Legend:
HepG2 cells [1] = test: Frameshift mutation-dependent GFP reporter in HepG2 cells; type: cell-based, human; conditions: 400 μM MG
Method: The pEGFP-CA/T12 vector is a reporter for efficiency of transfection while pEGFP-CA13 vector is a reporter of frameshift mutation induced by MG.^30 HepG2 cells (2×10^5 cells/well) were cultured in 12-well plates for 24 h, the MEM medium removed, the cells washed with serum free medium and replaced with DNA/lipofectamine complexes in serum free medium—transfection medium (Lipofectamine 2000 reagent, 2 μl; (1.8 μg pEGFP-CA13 or pEGFP-CA/T12; 2.0 ml serum free medium)—and incubated for 5 h at 37° C. The transfection medium was removed and replaced with complete MEM medium supplemented with 10% FCS and 2 mM glutamine) and incubated for 48 h. Transfection efficiency was assessed quantitatively by flow cytometry. […] Thereafter, cells were washed with phosphate-buffered saline (PBS) and analysed for GFP expression by flow cytometry.

HepG2 cells [2] = test: Growth inhibition of HepG2 cells by MG; type: cell-based; conditions: Homo sapiens, n=8, read-out: median growth inhibitory concentration
HMEC-1 endothelial cells = conditions: collagen conditioned with medium from BJ cells incubated with 2 μM SFN for 24 h
Method: The culture medium was then removed, incubated with human type IV collagen for 24 h and human microvascular endothelial HMEC-1 cell attachment studied as described^13a. […] The medium was then removed and added to wells of a 96-well plate (96-well; Costar; Corning) that had be prior coated type IV collagen. For the coating, 100-□l of 100 µg/ml of type IV collagen (human placental, type IV, pepsin extracted) was added to each well and incubated for 24 h at 37° C. Wells were then washed with phosphate buffered saline. Collagen coated wells were incubated with medium from BK cell cultures for 24 h at 37° C. and then washed with phosphate buffered saline. HMEC-1 endothelial cells (2.5×10^4 cells/well) were plated on to the collagen substrates and incubated for 1 h at 37° C. Non-adherent cells were removed and adherent cells were quantified by staining with 3-(4,5-dimethylthiazole-2-yl)-2,5-diphenyltetrazolium bromide, lysed with dimethylsulfoxide and the blue formazan product detected, by absorbance at 560 nm (Paul, R G, Bailey, A J: The effect of advanced glycation end-product formation upon cell-matrix interactions. Int J Biochem Cell Biol 31: 653-660, 2004).

BJ fibroblasts [3] = test: cells; conditions: Homo sapiens, Fibroblast, 24 h, read-out: cell viability during exposure to hydrogen peroxide
BJ fibroblasts [4] = test system: BJ fibroblasts
Text: Normal ageing may be modelled in human cells in vitro by cell senescence.

Glo1 [5] = test: Glo1 mRNA by real-time RT-PCR in cultured cells; type: cell-based, human; conditions: for induction of Glo1 expression: known nrf2 activators, data not shown
Method: (§1) Cell Culture Human hepatoma HepG2 cells and human BJ fibroblasts were cultured in Eagle's Minimum Essential Medium (MEM) medium with 10% foetal calf serum (FCS) and 2 mM glutamine under an atmosphere of 5% CO2 in air, 100% humidity and 37° C. Where sulforaphane was used, the R-stereoisomer was used. R-Sulforaphane (SFN) and allyl isothiocyanate (AITC) were purchased from Sigma-Aldrich (Poole, Dorset, UK).
Real-Time PCR Total RNA was extracted from cultured cells which were treated with SFN, AITC using RNeasy Mini Kit (QIAGEN). cDNAs were synthesized with oligo (dT)18 primer and BioScript reverse transcriptase (BIOLINE). Human GLO1 and ACTB (β-actin reference gene) mRNA were quantified by real-time RT-PCR SYBR green method on ABI 7500 fast real-time PCR system. The following primers were used to amplify GLO1, forward 5′-[…]-3′ (SEQ ID NO: 5) and reverse 5′-[…]-3′ (SEQ ID NO: 6). The reference gene ACTB was amplified with primers 5′-[…]-3′ SEQ ID NO: 7)(forward) and 5′-[…]-3′ (SEQ ID NO: 8)(reverse).

HepG2 cells [6] = conditions: 2 μM SFN
Method: (§2) Other Methods. Activity of Glo1 was determined by measuring the initial rate of isomerisation of the hemithioacetal formed from methylglyoxal and GSH to S-D-lactoylglutathione followed spectrophotometrically at 240 nm.^43 The concentration of MG in cells and culture medium was determined by stable isotopic dilution analysis liquid chromatography with tandem mass spectrometric detection.^4 ROS formation was assessed with dichlorodihydrofluorescein diacetate (H2DCFDA), monitoring the generation of dichlorofluorescein (DCF) fluorescence. HepG2 cells and BJ fibroblasts were incubated with H2DCFDA for 30 min, washed in PBS and DCF fluorescence quantified by flow cytometry.^44

methylglyoxal = conditions: 24 h post-treatment
Method: as §2

BJ fibroblasts [7] = conditions: 2 μM SFN, after 48 h
GLO1 promoter (ARE1) = conditions: ARE1 alone, HepG2 cells, 4 μM SFN 24 h
Method: Transfection and Luciferase Assay of Custom Vectors For luciferase assays, 2×10^5 HepG2 cells per well were plated into 24-well plates and cultured overnight. The cells were transfected with 0.5 μg reporter vector and 10 ng pRL-TK plasmid using Lipofectamine 2000 according to manufacture's protocol. The empty pGL3-basic vector was used as control. After 24 h, 4 μM SFN was added to the cells and vehicle (DMSO) added to control. After 24 h, the cells were washed with PBS and luciferase activity assay performed immediately or samples stored at −80° C. until analysis. For the reporter assay, 100 μl Cell Culture Lysis Reagent (CCLR, Promega) was added to cell extracts and shaken gently for 30 min. The activity mixture was centrifuged (12,000 g, 5 min, 4° C.) and an aliquot (20 μl) of supernatant used in the reporter assay. The luciferase activity was determined using a Dual Luciferase Reporter Assay System (Promega). The relative luciferase activities were normalized by co-transfection of pRL-TK vector.

Glo1 [8] = conditions: 2 μM SFN, over 16 h, BJ fibroblasts
Method: as §1

BJ fibroblasts [9] = conditions: scavenging of MG; reference 28; cited from earlier work
in vitro = conditions: human, BJ fibroblasts

For `C=CCN=C=S` [AITC, allyl isothiocyanate], the “frameshift mutations induced by MG” value (HepG2 cells [1]; prior 2 μM AITC) was “prevented” and the “frameshift mutation-dependent GFP induced by MG” value (HepG2 cells [1]; prior exposure to 2 μM AITC) was “prevented”.
In the case of `CC(=O)C=O` [MG, methylglyoxal], the “frameshift mutation-dependent GFP” value (HepG2 cells [1]) is reported as “increased”, the frameshift mutations (HepG2 cells [1]) is reported as “increased” and the IC50 (HepG2 cells [2]) is reported as 1070 ± 80 µM.
For `C[S@@+]([O-])CCCCN=C=S` [SFN, R-Sulforaphane], the “HMEC-1 endothelial cell adhesion to type IV collagen” value (HMEC-1 endothelial cells) was “Improved”, the viability at 0.5 µM (BJ fibroblasts [3]) was 88% and the “effect on Hayflick limit” value (BJ fibroblasts [4]; BJ cells, 1.0 μM SFN per passage from cumulative PDL 30) was “allowed escape from the Hayflick limit”. The “Hayflick limit, cumulative PDL” value (BJ fibroblasts [4]; BJ cells, 2×0.5 μM SFN per passage from cumulative PDL 45, control limit PDL 49) was 50.5, the “increase in cell number per passage” value (BJ fibroblasts [4]; BJ fibroblasts, 1.0 μM SFN per passage, beyond cumulative PDL 53) was > 3 fold and the “time post-treatment at which Glo1 mRNA maximised” value (Glo1 [5]; 2 μM SFN time course, BJ fibroblasts) was 12 h. The “Glo1 mRNA” value (Glo1 [5]; dose response, BJ fibroblasts) was “dose-dependent increase”, the “endogenous ROS” value (HepG2 cells [6]) was “decrease” and the “ROS induced by exogenous hydrogen peroxide” value (HepG2 cells [6]; 20 μM hydrogen peroxide) was “decrease”. The “concentration of methylglyoxal in the cell culture” value (methylglyoxal; HepG2 culture medium) was “marked decrease”, the “concentration of MG in cells” value (methylglyoxal; BJ fibroblasts, 2 μM SFN) was “decreased concentration” and the “concentration of MG in the cell culture medium” value (methylglyoxal; BJ fibroblasts, 2 μM SFN) was “decreased concentration”. The “cellular protein MG-H1 residue content” value (BJ fibroblasts [7]) was “decrease”, the “Glo1 transcriptional response of luciferase reporter” value (GLO1 promoter (ARE1)) was “maximal induction” and the Glo1 protein (Glo1 [8]) was “increase in Glo1 protein progressively”.
For `N=C(N)NN` [aminoguanidine], the “effect on cytotoxicity induced by exogenous hydrogen peroxide in vitro” value (BJ fibroblasts [9]) is listed as “protective”.
For `C=CCSSCC=C` [diallyldisulphide], the “induction of Glo1 expression” value (Glo1 [5]) was “not potent inducers”.
For `OO` [hydrogen peroxide], the viability at 200 μM (in vitro) was 74%.
In the case of `OCc1c[nH]c2ccccc12` [indole-3-carbinol], the “induction of Glo1 expression” value (Glo1 [5]) is reported as “not potent inducers”.
With `CC(C)(C)c1cc(O)ccc1O` [tert-butylhydroquinone] the “induction of Glo1 expression” value (Glo1 [5]) was “not potent inducers”.
